These results are taken from publication PMC11640973, “The Detection of Toxic Amyloid-β Fibril Fragments Through a Surface Plasmon Resonance Immunoassay” (International Journal of Molecular Sciences, 2024).

Where only a bound is given, the exact number is not on record here.

For series [1] the following is noted: SPR-based approach; ref [21]; cited from earlier work. An excerpt:
In order to reliably detect transient oligomeric species in a mixture of aggregated species without sample manipulation, an immunoassay based on surface plasmon resonance (SPR) has been proposed. This method exploits the properties of an anti-Aβ antibody (4G8) for a direct and simultaneous determination of monomers and biologically relevant (i.e., toxic) transient oligomeric species, also distinguishing the latter from large fibrils. SPR is a highly quantitative technique for measuring binding kinetics and determining monomer concentrations. However, in the context of aggregation assays ...

The conditions of series [2]: Aβ42 compared to Aβ40; ref [35]; cited from earlier work. The protocol: The lyophilized powder obtained from the synthesis and purification was suspended in 0.02% Trifluoracetic acid (TFA). The final pH of the solution was 2.8, ensuring the stability of the depsi bond and preventing premature conversion to the native peptide. The concentration was measured using UV ...

The subject of the next series is anti-Aβ antibody 4G8. The experiment in a line: SPR immunoassay of Aβ42 binding to immobilized anti-Aβ antibody 4G8. The text has this: This binding profile resembles closely that described previously for a solution containing monomers only. […]
For the present work, we used both the ProteOn™ XPR36 Protein Interaction Array system (Bio-Rad Laboratories, Hercules, CA, USA) and the Sierra SPR®-32 Pro (Bruker, Billerica, MA, USA). The ProteOn™ XPR36 allows for the preparation of six parallel lanes, each representing a different surface on a single chip, with, for instance, five lanes used for ligand (target) immobilization and one designated as a reference. By rotating the chip, each ligand surface can interact with up to six analytes, enabling the simultaneous analysis of up to 36 unique interactions in a single run. The Sierra SPR®-32 Pro is configured with 8 separate channels, each containing four detection spots, one of which serves as a reference spot, enabling analysis with up to 8 samples per run.
The anti-Aβ antibody 4G8 (Signet Laboratories, Emeryville, CA, USA) was immobilized on a CMD50L sensor chip (XanTec bioanalytics, Düsseldorf, Germany) using standard amine coupling chemistry, following standard protocols. A solution of 30 µg/mL 4G8 antibody in 20 mM acetate buffer pH 5.0 was injected for immobilization.
To monitor the aggregation of Aβ42 over time, we followed the general protocol described above. Briefly, Aβ42 was prepared at a final concentration of 50 µM in PBS and incubated at 37 °C. Samples were collected at various time points (0, 6, and 120 h) to capture distinct aggregated forms corresponding to monomers, oligomers/small fibrils, and fibrils. […] The signal from the 4G8-immobilized surface was corrected by subtracting the nonspecific response observed on the empty parallel reference surface.

The conditions of series [3]: stock solution in 50 mM NaOH (1 mg/mL), −80 °C; ref [38]; cited from earlier work. The protocol: To further validate our results, we used native forms of Aβ42. Lyophilized recombinant Aβ42 (rPepride) and the synthetic Aβ42 (Bachem) were suspended in a 50 mM NaOH solution (1 mg/mL) following the protocol of Taylor et al., which provides a simple and reliable method for the high-yield preparation of seedless Aβ monomers. […] This validated approach reduces handling variability and ensures reproducibility in experiments.

The subject of another series is SHSY-5Y cells. The experiment in a line: MTT toxicity assay on SHSY-5Y cells. Conditions: 24 h; for toxic effect (cell viability): Bachem Aβ42, 10 to 100 nM; for cell viability (of control): 10 nM, 95%CI fibrils 67.3–76.0%, fragmented 39.6–48.0%; for cell viability (of control) / cell viability (of controls): Bachem Aβ42, fibrils from 48 h at 37 °C, three sessions each in triplicate; for cell viability (of controls): 30 nM, 95%CI fibrils 52.1–57.3, fragmented 39.7–45.71%; for cell viability versus vehicle control cells: 10 to 100 nM, fibrils ± sonication, p < 0.01, one-way ANOVA. In kind it is cell-based. As for the experimental part:
SHSY-5Y cell survival was assessed using the MTT colorimetric assay after exposure to Aβ species—including monomers (t = 0), fibrils, and sonicated fibrils (48 h)—prepared and incubated at a concentration of 100 µM for aggregation. As described in the sample preparation chapter, cells were exposed to these Aβ species at final concentrations of 10, 30, and 100 nM for 24 h. Following exposure, cells were incubated with a culture medium (100 µL/well) containing a 1:10 dilution of Thiazolyl blue tetrazolium bromide (MTT; 4 mg dissolved in 1 mL DPBS). The plates were then placed in the incubator for 3 h. At the end of the incubation, the medium containing MTT was replaced with HCl-Isopropanol (1N HCl diluted 1:25 in 100% isopropanol). The absorbance of the colored solution was measured at 540 nm using a microplate spectrophotometer (F500 Infinity, Tecan, Männedorf, Switzerland).
Statistical calculations were performed using GraphPad Prism (version 9.4; GraphPad Software, Bethesda, MD, USA). Paired t-tests were used to analyze differences between experimental conditions (e.g., Figure 3), while one-way ANOVA followed by Tukey’s post hoc test was applied for multiple group comparisons (e.g., Figure 4). The data are presented as mean ± standard deviation (SD). The statistical significance was defined as p < 0.05.

Where [4] appears, read: incubated 5 days, then one freeze–thaw cycle.
The mark [5] stands for this setting: freshly prepared Aβ42 (t = 0), 5 µM.
[6] abbreviates: freshly prepared Aβ42 (t = 0), 5 µM in PBST (0.005% Tween), flowed over immobilized 4G8.

For `O=C(O[C@@H]1Cc2c(O)cc(O)cc2O[C@@H]1c1cc(O)c(O)c(O)c1)c1cc(O)c(O)c(O)c1` [epigallocatechin gallate], the “effect on formation of Aβ42 oligomers” value in series [1] was “inhibited”.

Amyloid-β1–42 [Aβ42]: the aggregation propensity entry in series [2] is “higher aggregation propensity”. Further, in the series on anti-Aβ antibody 4G8 (50 µM in PBS incubated 6 h at 37 °C, diluted to 5 µM, 15 min dissociation phase), the “dissociation of most of the binding signal” value is “very slow dissociation”. The “SPR binding signal on immobilized 4G8” value with anti-Aβ antibody 4G8 (50 µM in PBS incubated 6 h at 37 °C, diluted to 5 µM, versus t = 0) is reported as “marked increase in the SPR binding signal”. In the series on anti-Aβ antibody 4G8 (6 h of aggregation, 50 µM in PBS, 37 °C), the “decrease in the monomer signal” value worked out at 56%. Moreover, the “oligomer-dependent SPR signal (slow dissociation)” value in the series with anti-Aβ antibody 4G8 (fragmentation by freeze–thaw or sonication, eight independent experiments, rPeptide, Bachem or depsi-peptide Aβ42, Proteon or Bruker, p = 0.0012 paired t-test) is “fragmentation-induced increase in SPR-detected Aβ42 oligomers”. For the same compound, the “time to complete dissociation of signal” value in the series with anti-Aβ antibody 4G8 (incubated 5 days at 37 °C (residual monomers)) is on record as at most 15 min. For the same compound, in the series with anti-Aβ antibody 4G8 (incubated 5 days at 37 °C, versus 6 h and freshly prepared), the SPR signal entry was “much lower SPR signal compared to the solution incubated for 6 h (Figure 2c), and even lower than that of the freshly prepared solution”. In the series on anti-Aβ antibody 4G8 (setting [4]), the SPR signals entry is on record as “marked increase in the SPR signals” and the “absolute amount of monomers” value is listed as “decreased”. Besides, the “stability of monomeric state” value in series [3] was “at least 40 days”.

Regarding “Aβ40: Aβ1–40, fragment of Amyloid Precursor Protein [reference compound]”, in series [2], the aggregation propensity entry was “aggregates more slowly”.

Broadly, the koff is the first-order rate constant of dissociation. A low value points to a long-lived complex. The kon is the rate constant with which the complex forms. Take “Aβ42 monomer: freshly prepared Aβ42 solution (t = 0), containing monomers only”: at anti-Aβ antibody 4G8 (Aβ42 monomer binding to immobilized 4G8, t = 0), the “KD (calculated from the ratio koff/kon)” value is on record as “about 140 nM”. Moreover, in the series with anti-Aβ antibody 4G8 (setting [5]), the “time to complete dissociation” value is at most 15 min and the “time to saturation of SPR binding signal” value was “≈ 1 min”. Further, in the series on anti-Aβ antibody 4G8 (setting [6]), the koff worked out at 0.0044 s⁻¹ and the kon turned out to be 31000 M⁻¹ s⁻¹. Moreover, in the series on SHSY-5Y cells (MTT), the “toxic effect (cell viability)” value was “rule out any toxic effect”.

With “fibrillar macroaggregates: Aβ42 incubated 5 days, larger suprafibrillar macroaggregates”, the “recognition of fibrillar macroaggregates by SPR” value in the series on anti-Aβ antibody 4G8 (incubated 5 days at 37 °C) was “not recognized by SPR”.

For “fibrils: Aβ42 purchased from Bachem, fibrils obtained after 48 h incubation at 37 °C”, in the series on SHSY-5Y cells (MTT), the “cell viability (of control)” value was 71.6%, the “cell viability (of controls)” value is reported as 54.73% and the “toxic effect (cell viability)” value is “concentration-dependent toxicity”. For the same compound, the “cell viability versus vehicle control cells” value in the series on SHSY-5Y cells was “significantly different from the viability of control cells”.

With “sonicated fibrils: Aβ42 fibrils produced by tip sonication (1 min 10% power 30% cycles)”, in the series with SHSY-5Y cells (MTT), the “cell viability (of control)” value was determined as 43.8% and the “cell viability (of controls)” value was determined as 42.7%. Besides, the “cell viability versus vehicle control cells” value in the series on SHSY-5Y cells is “significantly different from the viability of control cells”. Also, the “fibril toxicity, change by fragmentation” value with SHSY-5Y cells (sonicated versus unfragmented fibrils, 10 and 30 nM, MTT) is “significantly increased by fragmentation”.
